For orientation: IC50 means the concentration that inhibits the measured activity by half. For orientation: EC50 means the concentration giving half of the maximal effect.

Our source for the IC50, EC50 and Activity values is ChEMBL document CHEMBL3352267, “The design and implementation of a generic lipopeptide scanning platform to enable the identification of 'locally acting' agonists for the apelin receptor” (Bioorg Med Chem Lett, 2014).

Activity calls are given as the source filed them. The rule behind the calls is not given here. Residues, ends and D or L forms follow the SMILES beside them. *: point of attachment. Palmitoyl = CCCCCCCCCCCCCCCC(=O)*

In assay [1] the target is T1, 5-hydroxytryptamine receptor 1A (Homo sapiens, UniProt P08908).
T1 sequence (P08908 whole entry): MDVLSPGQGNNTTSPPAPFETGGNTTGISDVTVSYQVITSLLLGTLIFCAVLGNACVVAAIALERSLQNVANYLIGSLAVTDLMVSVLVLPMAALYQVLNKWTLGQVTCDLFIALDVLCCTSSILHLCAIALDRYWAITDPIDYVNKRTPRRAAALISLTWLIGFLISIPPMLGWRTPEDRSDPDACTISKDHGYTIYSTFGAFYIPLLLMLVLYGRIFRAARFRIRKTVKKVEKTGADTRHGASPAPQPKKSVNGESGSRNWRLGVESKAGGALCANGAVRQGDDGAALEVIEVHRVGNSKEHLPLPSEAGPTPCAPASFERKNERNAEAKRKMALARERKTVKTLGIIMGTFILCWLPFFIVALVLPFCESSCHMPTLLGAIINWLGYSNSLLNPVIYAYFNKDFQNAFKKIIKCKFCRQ
Description: Antagonist activity at 5HT1A receptor (unknown origin) expressed in HeLa cells after 15 mins by calcium flux/FLIPR assay in presence of R-(+)-8-OH-DPAT. It counts as functional, cell-based. On the technique in general: Calcium flux is commonly read through the fluorescence of an indicator in the cells.

For assay [2], the target named is T1, 5-hydroxytryptamine receptor 1A. Description: Agonist activity at 5HT1A receptor (unknown origin) expressed in HeLa cells after 3 mins by calcium flux/FLIPR assay. Format: functional, cell-based.
Assay [3] deals with Beta-2 adrenergic receptor (Homo sapiens, UniProt P07550). In words: Agonist activity at beta-2 adrenergic receptor (unknown origin) expressed in CHOK1 cells by HTRF cAMP immunoassay. Format: functional, cell-based, CHO-K1. On the technique in general: TR-FRET usually uses a lanthanide donor and a delayed reading to cut background.
Beta-2 adrenergic receptor, sequence (P07550 whole entry): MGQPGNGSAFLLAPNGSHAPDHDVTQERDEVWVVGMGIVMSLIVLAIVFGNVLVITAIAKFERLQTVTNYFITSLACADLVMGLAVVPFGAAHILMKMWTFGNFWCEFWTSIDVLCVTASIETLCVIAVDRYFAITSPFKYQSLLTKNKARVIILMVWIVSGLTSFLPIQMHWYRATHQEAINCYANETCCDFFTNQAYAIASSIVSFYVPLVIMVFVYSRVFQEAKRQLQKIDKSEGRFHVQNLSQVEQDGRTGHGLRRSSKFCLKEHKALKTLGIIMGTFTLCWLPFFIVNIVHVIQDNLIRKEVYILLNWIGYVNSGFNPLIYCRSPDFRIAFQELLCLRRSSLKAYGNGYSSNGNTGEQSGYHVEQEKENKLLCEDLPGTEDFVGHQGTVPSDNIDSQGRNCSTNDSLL
Assay [4] addresses Sphingosine 1-phosphate receptor Edg-5/Sphingosine 1-phosphate receptor Edg-3 (Homo sapiens) (UniProt O95136+Q99500). In words: Agonist activity at S1P2/3 receptor in HEK293 cells assessed as inhibition of forskolin-induced cAMP level after 1 hr by alphascreen immunoassay. It counts as functional, cell-based. (Changes in cAMP serve as a functional read-out for many G protein-coupled receptors.)

For assay [5], the target named is T2, Thromboxane A2 receptor (Homo sapiens, UniProt P21731).
T2 sequence (P21731 whole entry): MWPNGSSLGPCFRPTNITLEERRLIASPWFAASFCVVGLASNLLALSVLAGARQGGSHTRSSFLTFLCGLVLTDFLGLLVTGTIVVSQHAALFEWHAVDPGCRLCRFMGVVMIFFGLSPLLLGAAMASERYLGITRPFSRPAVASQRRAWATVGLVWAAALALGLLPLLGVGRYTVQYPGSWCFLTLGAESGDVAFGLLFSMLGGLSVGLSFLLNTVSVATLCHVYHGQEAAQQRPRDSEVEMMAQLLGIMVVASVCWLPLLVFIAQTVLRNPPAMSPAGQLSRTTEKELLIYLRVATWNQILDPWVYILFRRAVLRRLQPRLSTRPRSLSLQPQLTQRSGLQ
Description: Agonist activity at thromboxane A2 receptor (unknown origin) expressed in HEK293-EBNA cells after 3 mins by calcium flux/FLIPR assay. It counts as functional, cell-based.

In assay [6] the target is T3, D(1A) dopamine receptor (Homo sapiens, UniProt P21728). Description: Antagonist activity at D1A receptor (unknown origin) expressed in CHOK1 cells after 5 mins by HTRF cAMP immunoassay in presence of cAMP/SKF38393. It counts as functional, cell-based, CHO-K1.
T3 sequence (P21728 whole entry): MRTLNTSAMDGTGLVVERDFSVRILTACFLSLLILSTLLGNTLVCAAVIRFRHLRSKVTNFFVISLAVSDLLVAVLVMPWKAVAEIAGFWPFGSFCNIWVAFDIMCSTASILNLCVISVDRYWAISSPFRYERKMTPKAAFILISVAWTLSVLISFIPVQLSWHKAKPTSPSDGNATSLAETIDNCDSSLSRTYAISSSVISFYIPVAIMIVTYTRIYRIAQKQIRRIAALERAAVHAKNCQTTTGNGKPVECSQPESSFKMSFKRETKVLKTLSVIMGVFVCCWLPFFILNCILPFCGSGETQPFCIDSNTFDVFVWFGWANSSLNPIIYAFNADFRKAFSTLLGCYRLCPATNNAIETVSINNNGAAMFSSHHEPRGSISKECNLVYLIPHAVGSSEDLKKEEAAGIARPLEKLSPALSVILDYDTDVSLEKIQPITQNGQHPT
Assay [7] has as its target T4, Alpha-1A adrenergic receptor (Homo sapiens, UniProt P35348).
T4 sequence (P35348 whole entry): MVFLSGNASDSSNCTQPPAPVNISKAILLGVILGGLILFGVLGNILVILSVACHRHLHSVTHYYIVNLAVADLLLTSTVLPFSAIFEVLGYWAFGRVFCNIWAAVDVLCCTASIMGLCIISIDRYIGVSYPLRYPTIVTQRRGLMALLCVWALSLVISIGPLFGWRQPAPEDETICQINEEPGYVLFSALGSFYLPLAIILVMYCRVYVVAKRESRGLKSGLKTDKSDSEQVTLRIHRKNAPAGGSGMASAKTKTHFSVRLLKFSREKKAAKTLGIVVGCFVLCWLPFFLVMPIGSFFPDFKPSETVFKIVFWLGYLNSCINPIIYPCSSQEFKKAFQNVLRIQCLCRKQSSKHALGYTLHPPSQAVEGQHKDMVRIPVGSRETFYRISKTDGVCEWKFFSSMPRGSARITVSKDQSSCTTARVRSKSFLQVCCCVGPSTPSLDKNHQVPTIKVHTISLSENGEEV
In words: Antagonist activity at alpha-1A adrenergic receptor (unknown origin) expressed in CHOK1 cells after 15 mins by calcium flux/FLIPR assay in presence of A-61603. Format: functional, cell-based, CHO-K1.

Assay [8] deals with T5, Muscarinic acetylcholine receptor M2 (Homo sapiens, UniProt P08172).
T5 sequence (P08172 whole entry): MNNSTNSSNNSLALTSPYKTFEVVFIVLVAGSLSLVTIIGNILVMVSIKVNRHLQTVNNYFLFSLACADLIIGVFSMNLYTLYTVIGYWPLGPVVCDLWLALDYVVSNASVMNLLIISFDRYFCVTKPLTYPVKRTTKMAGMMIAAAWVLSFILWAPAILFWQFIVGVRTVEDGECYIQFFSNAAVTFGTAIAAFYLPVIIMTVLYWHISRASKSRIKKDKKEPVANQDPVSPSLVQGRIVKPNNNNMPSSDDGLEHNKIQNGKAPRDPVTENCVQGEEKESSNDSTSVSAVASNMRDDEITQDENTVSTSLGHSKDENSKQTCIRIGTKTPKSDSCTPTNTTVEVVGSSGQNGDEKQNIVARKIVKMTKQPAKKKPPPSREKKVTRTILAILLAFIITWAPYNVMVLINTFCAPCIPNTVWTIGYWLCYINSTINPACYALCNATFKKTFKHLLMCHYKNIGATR
In words: Antagonist activity at muscarinic acetylcholine receptor M2 (unknown origin) expressed in CHOK1 cells after 15 mins by calcium flux/FLIPR assay in presence of acetylcholine. It counts as functional, cell-based, CHO-K1.

The target in assay [9] is T6, 5-hydroxytryptamine receptor 2B (Homo sapiens, UniProt P41595). Description: Agonist activity at 5HT2B receptor (unknown origin) expressed in CHOK1 cells after 3 mins by calcium flux/FLIPR assay. Format: functional, cell-based, CHO-K1.
T6 sequence (P41595 whole entry): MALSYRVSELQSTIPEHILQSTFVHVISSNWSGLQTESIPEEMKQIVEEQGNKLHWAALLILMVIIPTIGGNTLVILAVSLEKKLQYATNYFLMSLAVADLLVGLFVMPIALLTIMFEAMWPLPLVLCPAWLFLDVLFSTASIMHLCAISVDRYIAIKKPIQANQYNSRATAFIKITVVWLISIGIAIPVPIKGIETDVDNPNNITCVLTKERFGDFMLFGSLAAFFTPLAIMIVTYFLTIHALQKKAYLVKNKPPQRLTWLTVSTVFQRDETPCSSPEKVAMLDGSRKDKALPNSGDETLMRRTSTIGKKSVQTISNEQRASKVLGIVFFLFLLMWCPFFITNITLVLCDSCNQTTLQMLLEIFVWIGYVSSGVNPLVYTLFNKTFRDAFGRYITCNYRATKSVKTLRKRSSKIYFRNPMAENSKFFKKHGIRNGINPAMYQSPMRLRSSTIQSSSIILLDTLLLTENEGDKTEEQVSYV
In assay [10] the target is T7, 5-hydroxytryptamine receptor 2A (Homo sapiens, UniProt P28223). In words: Antagonist activity at 5HT2A receptor (unknown origin) expressed in CHOK1 cells after 15 mins by calcium flux/FLIPR assay in presence of 5HT. It counts as functional, cell-based, CHO-K1.
T7 sequence (P28223 whole entry): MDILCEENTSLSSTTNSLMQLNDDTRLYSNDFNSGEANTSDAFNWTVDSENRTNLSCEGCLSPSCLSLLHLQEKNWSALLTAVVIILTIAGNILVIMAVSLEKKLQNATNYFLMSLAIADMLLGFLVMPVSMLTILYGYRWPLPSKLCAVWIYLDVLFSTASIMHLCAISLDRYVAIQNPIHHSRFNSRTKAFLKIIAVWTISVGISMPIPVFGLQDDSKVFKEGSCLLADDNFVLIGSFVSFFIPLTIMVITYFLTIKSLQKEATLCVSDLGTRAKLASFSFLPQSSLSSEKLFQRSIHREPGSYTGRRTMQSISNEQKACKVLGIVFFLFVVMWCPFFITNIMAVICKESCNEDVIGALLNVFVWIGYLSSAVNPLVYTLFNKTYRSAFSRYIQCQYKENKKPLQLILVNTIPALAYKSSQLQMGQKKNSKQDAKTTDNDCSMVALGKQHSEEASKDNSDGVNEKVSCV
The target in assay [11] is T2, Thromboxane A2 receptor. In words: Antagonist activity at thromboxane A2 receptor (unknown origin) expressed in HEK293-EBNA cells after 15 mins by calcium flux/FLIPR assay in presence of U-46619. Format: functional, cell-based.
Assay [12] has as its target T6, 5-hydroxytryptamine receptor 2B. In words: Antagonist activity at 5HT2B receptor (unknown origin) expressed in CHOK1 cells after 15 mins by calcium flux/FLIPR assay in presence of BW723C86. Format: functional, cell-based, CHO-K1.
Assay [13] addresses T8, Cannabinoid receptor 1 (Homo sapiens, UniProt P21554). In words: Agonist activity at CB1 receptor (unknown origin) expressed in rat CHEM-1 cells after 3 mins by calcium flux/FLIPR assay. It counts as functional, cell-based.
In assay [14] the target is T7, 5-hydroxytryptamine receptor 2A. Description: Agonist activity at 5HT2A receptor (unknown origin) expressed in CHOK1 cells after 3 mins by calcium flux/FLIPR assay. It counts as functional, cell-based, CHO-K1.
Assay [15] has as its target T3, D(1A) dopamine receptor. In words: Agonist activity at D1A receptor (unknown origin) expressed in CHOK1 cells by HTRF cAMP immunoassay. It counts as functional, cell-based, CHO-K1.
Assay [16] addresses T9, D(4) dopamine receptor (Homo sapiens) (UniProt P21917).
T9 sequence (whole entry): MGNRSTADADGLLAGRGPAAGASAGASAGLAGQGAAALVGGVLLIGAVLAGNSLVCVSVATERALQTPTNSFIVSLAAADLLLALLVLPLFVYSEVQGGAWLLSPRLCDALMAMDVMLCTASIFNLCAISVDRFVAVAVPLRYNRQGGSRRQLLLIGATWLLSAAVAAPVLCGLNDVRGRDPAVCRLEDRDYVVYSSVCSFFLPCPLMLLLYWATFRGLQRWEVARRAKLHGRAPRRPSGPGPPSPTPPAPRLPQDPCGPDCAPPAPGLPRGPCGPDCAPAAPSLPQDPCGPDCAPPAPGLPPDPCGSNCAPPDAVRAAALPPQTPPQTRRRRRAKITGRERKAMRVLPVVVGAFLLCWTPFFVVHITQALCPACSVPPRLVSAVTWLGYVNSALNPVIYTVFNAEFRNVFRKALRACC
In words: Agonist activity at human D4 receptor expressed in Chem-5 cells assessed as calcium mobilization by FLIPR assay. Format: functional, cell-based.

Assay [17] concerns the target T8, Cannabinoid receptor 1. In words: Antagonist activity at CB1 receptor (unknown origin) expressed in rat CHEM-1 cells after 15 mins by calcium flux/FLIPR assay in presence of CP55940. Format: functional, cell-based.
Assay [18] has as its target T4, Alpha-1A adrenergic receptor. In words: Agonist activity at alpha-1A adrenergic receptor (unknown origin) expressed in CHOK1 cells after 3 mins by calcium flux/FLIPR assay. It counts as functional, cell-based, CHO-K1.
For assay [19], the target named is T5, Muscarinic acetylcholine receptor M2. In words: Agonist activity at muscarinic acetylcholine receptor M2 (unknown origin) expressed in CHOK1 cells after 3 mins by calcium flux/FLIPR assay. Format: functional, cell-based, CHO-K1.

T8 sequence (P21554 whole entry): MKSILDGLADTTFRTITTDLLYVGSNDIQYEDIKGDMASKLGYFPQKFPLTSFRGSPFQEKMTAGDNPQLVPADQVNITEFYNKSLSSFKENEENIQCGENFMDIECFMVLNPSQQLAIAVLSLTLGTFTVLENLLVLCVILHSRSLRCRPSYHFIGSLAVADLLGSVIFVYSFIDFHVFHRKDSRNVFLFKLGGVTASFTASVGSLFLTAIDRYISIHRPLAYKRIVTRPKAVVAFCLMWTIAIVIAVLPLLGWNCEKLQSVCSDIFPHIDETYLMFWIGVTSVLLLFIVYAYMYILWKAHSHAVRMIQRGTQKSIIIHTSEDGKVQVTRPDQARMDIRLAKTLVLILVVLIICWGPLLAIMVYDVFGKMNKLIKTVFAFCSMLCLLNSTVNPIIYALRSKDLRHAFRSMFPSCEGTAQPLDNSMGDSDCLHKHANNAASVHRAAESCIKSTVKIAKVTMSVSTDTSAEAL

On to `CCCCCCCCCCCCCCCC(=O)N[C@H](C(=O)N[C@H](C(=O)N[C@@H](CC(C)C)C(=O)N1CCC[C@H]1C(=O)N[C@@H](CC(C)C)C(=O)N[C@@H](Cc1c[nH]c2ccccc12)C(=O)N[C@@H](C)C(=O)N[C@H](C(=O)N[C@@H](Cc1ccc(O)cc1)C(=O)N[C@H](C(=O)N[C@@H](Cc1ccc(O)cc1)C(=O)N[C@@H](CCCNC(=N)N)C(N)=O)[C@@H](C)O)[C@@H](C)O)[C@@H](C)O)C(C)C` (Palmitoyl-VTLPLWATYTYR-NH2), for which the concentration for half-maximal inhibition (IC50) (in assay [1]; on D(1A) dopamine receptor [6]; in assay [7]; in [8]; in assay [10]; on Thromboxane A2 receptor [11]) was above 30 µM in each case. Besides, the IC50 (in [12]; at Cannabinoid receptor 1 [17]) was above 30 µM in each case. The EC50 (in [2]; in assay [3]; on Thromboxane A2 receptor [5]; in assay [9]; on Cannabinoid receptor 1 [13]; in [14]) was above 30 µM each time. The EC50 (on D(1A) dopamine receptor [15]; in assay [18]; in assay [19]) was above 30 µM throughout. The result in assay [4] and in [16] was inactive.
